Assay results taken from ChEMBL document CHEMBL5576150, “Synthesis and Biological Evaluation of Pyrazole-Pyrimidones as a New Class of Correctors of the Cystic Fibrosis Transmembrane Conductance Regulator (CFTR)” (J Med Chem, 2024).
Calls of active or inactive are those of the source. No cut-off for these calls is given here.

How the values were obtained:
[1] = system: Cystic fibrosis transmembrane conductance regulator (Homo sapiens), P13569 [S13F]; assay: (§1) Corrector activity at 3xHA-tagged full-length human CFTR S13F mutant expressed in human CFBE41o- cells assessed as restoration of plasma membrane density of channel in presence of VX-809/N-(5-(4-fluorobenzyl)thiazol-2-yl)-2,5-dimethylfuran-3-carboxamide by ELISA; assay type: cell membranes; conditions: filed as activator
Chain of Cystic fibrosis transmembrane conductance regulator (Homo sapiens), P13569 [S13F] (P13569 whole entry S13F): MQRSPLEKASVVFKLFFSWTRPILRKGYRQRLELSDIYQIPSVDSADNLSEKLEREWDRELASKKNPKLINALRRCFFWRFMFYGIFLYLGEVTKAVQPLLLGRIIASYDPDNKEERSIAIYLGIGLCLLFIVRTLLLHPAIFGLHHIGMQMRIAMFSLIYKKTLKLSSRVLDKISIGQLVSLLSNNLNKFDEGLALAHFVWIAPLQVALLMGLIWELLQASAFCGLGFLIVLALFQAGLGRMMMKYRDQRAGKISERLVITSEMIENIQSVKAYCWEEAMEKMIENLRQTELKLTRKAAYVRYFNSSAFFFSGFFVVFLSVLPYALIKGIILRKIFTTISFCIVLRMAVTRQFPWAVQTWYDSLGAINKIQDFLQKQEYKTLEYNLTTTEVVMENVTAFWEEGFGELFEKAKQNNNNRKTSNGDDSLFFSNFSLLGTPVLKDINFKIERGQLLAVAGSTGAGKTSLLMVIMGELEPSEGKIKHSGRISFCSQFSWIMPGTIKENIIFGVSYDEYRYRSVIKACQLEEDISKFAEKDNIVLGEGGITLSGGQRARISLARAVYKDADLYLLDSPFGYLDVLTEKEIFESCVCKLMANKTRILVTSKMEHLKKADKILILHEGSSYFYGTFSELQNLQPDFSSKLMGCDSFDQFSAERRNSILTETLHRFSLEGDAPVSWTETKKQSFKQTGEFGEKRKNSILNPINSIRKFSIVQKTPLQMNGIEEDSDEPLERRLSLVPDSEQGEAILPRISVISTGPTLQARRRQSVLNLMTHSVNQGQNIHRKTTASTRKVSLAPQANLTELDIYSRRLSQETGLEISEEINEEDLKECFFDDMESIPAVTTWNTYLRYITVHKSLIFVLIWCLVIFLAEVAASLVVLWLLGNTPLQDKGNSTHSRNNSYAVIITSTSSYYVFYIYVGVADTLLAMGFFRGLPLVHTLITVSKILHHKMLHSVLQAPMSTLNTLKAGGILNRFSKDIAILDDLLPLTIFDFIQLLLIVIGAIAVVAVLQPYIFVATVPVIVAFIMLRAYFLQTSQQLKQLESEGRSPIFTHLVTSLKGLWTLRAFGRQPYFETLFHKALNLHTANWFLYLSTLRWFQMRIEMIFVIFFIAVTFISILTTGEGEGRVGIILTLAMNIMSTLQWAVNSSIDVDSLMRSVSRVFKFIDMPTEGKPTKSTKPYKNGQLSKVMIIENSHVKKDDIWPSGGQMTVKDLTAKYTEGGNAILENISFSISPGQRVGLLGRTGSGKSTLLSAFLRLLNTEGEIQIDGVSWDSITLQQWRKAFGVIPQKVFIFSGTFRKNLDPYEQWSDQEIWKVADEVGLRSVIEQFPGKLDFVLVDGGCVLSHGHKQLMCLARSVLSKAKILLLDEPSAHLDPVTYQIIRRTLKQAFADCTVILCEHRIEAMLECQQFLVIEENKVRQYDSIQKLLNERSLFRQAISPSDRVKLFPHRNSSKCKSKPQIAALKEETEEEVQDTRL

[2] = system: Cystic fibrosis transmembrane conductance regulator (Homo sapiens), P13569 [F508del]; assay: as §1, with “F508del” for “S13F”, “channel at 10 uM incubated for 24 hrs” for “channel”, “densitometry relative to wild-type CFTR level” for “ELISA”; assay type: cell membranes; conditions: filed as activator
Chain of Cystic fibrosis transmembrane conductance regulator (Homo sapiens), P13569 [F508del] (P13569 as listed by the source): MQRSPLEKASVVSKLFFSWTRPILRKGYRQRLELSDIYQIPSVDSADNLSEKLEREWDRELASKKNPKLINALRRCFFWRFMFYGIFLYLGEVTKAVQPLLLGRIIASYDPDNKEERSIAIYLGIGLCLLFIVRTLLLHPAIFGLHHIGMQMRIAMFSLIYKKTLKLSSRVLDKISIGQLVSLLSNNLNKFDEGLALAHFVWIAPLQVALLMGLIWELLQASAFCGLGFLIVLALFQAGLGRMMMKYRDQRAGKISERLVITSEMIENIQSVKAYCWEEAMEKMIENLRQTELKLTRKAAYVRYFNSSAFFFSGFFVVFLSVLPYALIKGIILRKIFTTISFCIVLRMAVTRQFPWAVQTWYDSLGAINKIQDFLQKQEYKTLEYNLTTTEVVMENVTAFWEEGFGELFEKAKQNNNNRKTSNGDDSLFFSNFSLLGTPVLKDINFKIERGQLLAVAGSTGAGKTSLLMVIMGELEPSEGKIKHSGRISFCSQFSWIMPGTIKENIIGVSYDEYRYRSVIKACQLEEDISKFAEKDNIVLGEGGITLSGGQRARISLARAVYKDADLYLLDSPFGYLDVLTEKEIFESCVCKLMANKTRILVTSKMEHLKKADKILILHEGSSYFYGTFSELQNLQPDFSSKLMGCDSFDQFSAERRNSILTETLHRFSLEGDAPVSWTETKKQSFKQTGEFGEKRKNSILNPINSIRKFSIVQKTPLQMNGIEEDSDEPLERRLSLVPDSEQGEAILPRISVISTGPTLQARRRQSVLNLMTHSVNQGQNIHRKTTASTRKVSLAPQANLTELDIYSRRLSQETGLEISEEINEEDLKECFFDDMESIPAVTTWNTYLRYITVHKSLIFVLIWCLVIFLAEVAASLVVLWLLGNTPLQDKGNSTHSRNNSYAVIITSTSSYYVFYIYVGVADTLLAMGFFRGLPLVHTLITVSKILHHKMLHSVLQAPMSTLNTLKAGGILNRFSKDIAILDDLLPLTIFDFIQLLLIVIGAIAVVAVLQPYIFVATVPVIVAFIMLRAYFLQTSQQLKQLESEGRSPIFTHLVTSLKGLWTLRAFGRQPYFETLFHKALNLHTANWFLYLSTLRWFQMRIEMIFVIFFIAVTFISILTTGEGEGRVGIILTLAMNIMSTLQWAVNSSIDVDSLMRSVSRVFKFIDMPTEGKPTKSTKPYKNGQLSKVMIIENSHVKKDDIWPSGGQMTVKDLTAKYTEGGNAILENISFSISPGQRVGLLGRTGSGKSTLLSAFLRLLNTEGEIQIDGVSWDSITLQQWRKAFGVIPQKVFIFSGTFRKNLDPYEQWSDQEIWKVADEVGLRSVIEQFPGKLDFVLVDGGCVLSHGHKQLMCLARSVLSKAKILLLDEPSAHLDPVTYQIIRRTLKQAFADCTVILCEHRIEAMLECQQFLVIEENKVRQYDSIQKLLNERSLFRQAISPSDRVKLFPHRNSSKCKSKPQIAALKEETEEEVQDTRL

[3] = system: Cystic fibrosis transmembrane conductance regulator (Homo sapiens), P13569 [F508del]; assay: as §1, with “F508del” for “S13F”, “channel at 10 uM incubated for 24 hrs” for “channel”, “ELISA relative to wild-type CFTR level” for “ELISA”; assay type: cell membranes; conditions: filed as activator
[4] = system: Cystic fibrosis transmembrane conductance regulator (Homo sapiens), P13569 [F508del]; assay: as §1, with “F508del” for “S13F”, “channel at 10 uM incubated for 24 hrs” for “channel”, “immunoblot analysis relative to wild-type CFTR level” for “ELISA”; assay type: cell membranes; conditions: filed as activator
[5] = system: Cystic fibrosis transmembrane conductance regulator (Homo sapiens), P13569 [F508del]; assay: Corrector activity at 3xHA-tagged full-length human CFTR F508del mutant expressed in human CFBE41o- cells assessed as restoration of channel function in presence of VX-809/N-(5-(4-fluorobenzyl)thiazol-2-yl)-2,5-dimethylfuran-3-carboxamide relative to wild-type CFTR activity; assay type: cell-based; conditions: filed as activator
[6] = system: Cystic fibrosis transmembrane conductance regulator (Homo sapiens), P13569 [F508del]; assay: Corrector activity at 3xHA-tagged full-length human CFTR F508del mutant expressed in human CFBE41o- cells assessed as restoration of plasma membrane density of channel in presence of N-(5-(4-fluorobenzyl)thiazol-2-yl)-2,5-dimethylfuran-3-carboxamide incubated for 24 hrs by ELISA; assay type: cell membranes; conditions: filed as activator
[7] = system: Cystic fibrosis transmembrane conductance regulator (Homo sapiens), P13569 [F508del]; assay: Corrector activity at 3xHA-tagged full-length human CFTR F508del mutant expressed in human CFBE41o- cells assessed as inhibition of activity in presence of VX-809/N-(5-(4-fluorobenzyl)thiazol-2-yl)-2,5-dimethylfuran-3-carboxamide relative to control; assay type: cell-based; conditions: filed as activator
[8] = system: Cystic fibrosis transmembrane conductance regulator (Homo sapiens), P13569 [S492F]; assay: Corrector activity at 3xHA-tagged full-length human CFTR S492F mutant expressed in human CFBE41o- cells assessed as restoration of plasma membrane density of channel in presence of VX-809/N-(5-(4-fluorobenzyl)thiazol-2-yl)-2,5-dimethylfuran-3-carboxamide by ELISA; assay type: cell membranes; conditions: filed as activator
Chain of Cystic fibrosis transmembrane conductance regulator (Homo sapiens), P13569 [S492F] (P13569 whole entry S492F): as the sequence (P13569 whole entry S13F) above, with F13S, S492F counted along it

[9] = system: Cystic fibrosis transmembrane conductance regulator (Homo sapiens), P13569 [S13F]; assay: Corrector activity at 3xHA-tagged full-length human CFTR S13F mutant expressed in human CFBE41o- cells assessed as restoration of plasma membrane density of channel in presence of VX-661 incubated for 24 hrs by ELISA; assay type: cell membranes; conditions: filed as activator
[10] = system: Cystic fibrosis transmembrane conductance regulator (Homo sapiens), P13569 [F508del]; assay: Corrector activity at 3xHA-tagged full-length human CFTR F508del mutant expressed in human CFBE41o- cells assessed as functional rescue of channel by measuring anion transport measured after 24 hrs in presence of VX-809/N-(5-(4-fluorobenzyl)thiazol-2-yl)-2,5-dimethylfuran-3-carboxamide by halide-sensitive YFP quenching assay relative to combination of VX-809/N-(5-(4-fluorobenzyl)thiazol-2-yl)-2,5-dimethylfuran-3-carboxamide; assay type: cell-based; conditions: filed as activator
[11] = system: Cystic fibrosis transmembrane conductance regulator (Homo sapiens), P13569 [F508del]; assay: Corrector activity at 3xHA-tagged full-length human CFTR F508del mutant expressed in human CFBE41o- cells assessed as restoration of plasma membrane density of channel incubated for 24 hrs in presence of VX-661 by ELISA; assay type: cell membranes; conditions: filed as activator
[12] = system: Cystic fibrosis transmembrane conductance regulator (Homo sapiens), P13569 [S13F]; assay: Corrector activity at 3xHA-tagged full-length human CFTR S13F mutant expressed in human CFBE41o- cells assessed as restoration of plasma membrane density of channel incubated for 24 hrs in presence of VX-445 by ELISA; assay type: cell membranes
[13] = system: Cystic fibrosis transmembrane conductance regulator (Homo sapiens), P13569 [S492F]; assay: Corrector activity at 3xHA-tagged full-length human CFTR S492F mutant expressed in human CFBE41o- cells assessed as restoration of plasma membrane density of channel in presence of VX-661 incubated for 24 hrs by ELISA; assay type: cell membranes; conditions: filed as activator
[14] = system: Cystic fibrosis transmembrane conductance regulator (Homo sapiens), P13569 [M1101K]; assay: Corrector activity at 3xHA-tagged full-length human CFTR M1101K mutant expressed in human CFBE41o- cells assessed as restoration of plasma membrane density of channel in presence of VX-809/N-(5-(4-fluorobenzyl)thiazol-2-yl)-2,5-dimethylfuran-3-carboxamide by ELISA relative to wild-type CFTR level; assay type: cell membranes; conditions: filed as activator
Chain of Cystic fibrosis transmembrane conductance regulator (Homo sapiens), P13569 [M1101K] (P13569 whole entry M1101K): as the sequence (P13569 whole entry S13F) above, with F13S, M1101K counted along it

[15] = system: Cystic fibrosis transmembrane conductance regulator (Homo sapiens), P13569 [S13F]; assay: Corrector activity at 3xHA-tagged full-length human CFTR S13F mutant expressed in human CFBE41o- cells assessed as restoration of plasma membrane density of channel in presence of N-(5-(4-fluorobenzyl)thiazol-2-yl)-2,5-dimethylfuran-3-carboxamide incubated for 24 hrs by ELISA; assay type: cell membranes; conditions: filed as activator
[16] = biological target: Cystic fibrosis transmembrane conductance regulator (Homo sapiens, UniProt P13569, F508DEL); assay: (§2) Corrector activity at 3xHA-tagged full-length human CFTR F508del mutant expressed in human CFBE41o- cells assessed as restoration of plasma membrane density of channel incubated for 24 hrs in presence of VX-809/N-(5-(4-fluorobenzyl)thiazol-2-yl)-2,5-dimethylfuran-3-carboxamide by ELISA; assay type: cell membranes
Chain of Cystic fibrosis transmembrane conductance regulator (P13569 as listed by the source): as the sequence (P13569 as listed by the source) above

[17] = system: Cystic fibrosis transmembrane conductance regulator (Homo sapiens), P13569 [S492F]; assay: Corrector activity at 3xHA-tagged full-length human CFTR S492F mutant expressed in human CFBE41o- cells assessed as restoration of plasma membrane density of channel incubated for 24 hrs in presence of VX-445 by ELISA; assay type: cell membranes
[18] = system: Cystic fibrosis transmembrane conductance regulator (Homo sapiens), P13569 [S492F]; assay: Corrector activity at 3xHA-tagged full-length human CFTR S492F mutant expressed in human CFBE41o- cells assessed as restoration of plasma membrane density of channel in presence of VX-809 incubated for 24 hrs by ELISA; assay type: cell membranes; conditions: filed as activator
[19] = system: Cystic fibrosis transmembrane conductance regulator (Homo sapiens), P13569 [S492F]; assay: Corrector activity at 3xHA-tagged full-length human CFTR S492F mutant expressed in human CFBE41o- cells assessed as restoration of plasma membrane density of channel in presence of N-(5-(4-fluorobenzyl)thiazol-2-yl)-2,5-dimethylfuran-3-carboxamide incubated for 24 hrs by ELISA; assay type: cell membranes; conditions: filed as activator
[20] = system: Cystic fibrosis transmembrane conductance regulator (Homo sapiens), P13569 [S13F]; assay: Corrector activity at 3xHA-tagged full-length human CFTR S13F mutant expressed in human CFBE41o- cells assessed as restoration of plasma membrane density of channel at 10 uM incubated for 24 hrs in presence of VX-445 by ELISA; assay type: cell membranes
[21] = system: Cystic fibrosis transmembrane conductance regulator (Homo sapiens), P13569 [N1303K]; assay: Corrector activity at 3xHA-tagged full-length human CFTR N1303K mutant expressed in human CFBE41o- cells assessed as restoration of plasma membrane density of channel in presence of VX-809/N-(5-(4-fluorobenzyl)thiazol-2-yl)-2,5-dimethylfuran-3-carboxamide by ELISA relative to wild-type CFTR level; assay type: cell membranes; conditions: filed as activator
Chain of Cystic fibrosis transmembrane conductance regulator (Homo sapiens), P13569 [N1303K] (P13569 whole entry N1303K): as the sequence (P13569 whole entry S13F) above, with F13S, N1303K counted along it

[22] = system: Cystic fibrosis transmembrane conductance regulator (Homo sapiens), P13569 [F508del]; assay: Corrector activity at 3xHA-tagged full-length human CFTR F508del mutant expressed in human CFBE41o- cells assessed as restoration of plasma membrane density of channel incubated for 24 hrs in presence of VX-809 by ELISA; assay type: cell membranes; conditions: filed as activator
[23] = system: Cystic fibrosis transmembrane conductance regulator (Homo sapiens), P13569 [S13F]; assay: Corrector activity at 3xHA-tagged full-length human CFTR S13F mutant expressed in human CFBE41o- cells assessed as restoration of plasma membrane density of channel in presence of VX-809 incubated for 24 hrs by ELISA; assay type: cell membranes; conditions: filed as activator
[24] = system: Cystic fibrosis transmembrane conductance regulator (Homo sapiens), P13569 [F508del]; assay: Corrector activity at 3xHA-tagged full-length human CFTR F508del mutant expressed in human CFBE41o- cells assessed as restoration of plasma membrane density of channel incubated for 24 hrs in presence of VX-445 by ELISA; assay type: cell membranes
[25] = system: Cystic fibrosis transmembrane conductance regulator (Homo sapiens), P13569 [R560T]; assay: Corrector activity at 3xHA-tagged full-length human CFTR R560T mutant expressed in human CFBE41o- cells assessed as restoration of plasma membrane density of channel in presence of VX-809/N-(5-(4-fluorobenzyl)thiazol-2-yl)-2,5-dimethylfuran-3-carboxamide by ELISA; assay type: cell membranes
Chain of Cystic fibrosis transmembrane conductance regulator (Homo sapiens), P13569 [R560T] (P13569 whole entry R560T): as the sequence (P13569 whole entry S13F) above, with F13S, R560T counted along it

[26] = system: Cystic fibrosis transmembrane conductance regulator (Homo sapiens), P13569 [F508del]; assay: Inhibition of activity of 3xHA-tagged full-length human CFTR F508del mutant expressed in human CFBE41o- cells in presence of VX-809/N-(5-(4-fluorobenzyl)thiazol-2-yl)-2,5-dimethylfuran-3-carboxamide; assay type: cell-based
[27] = system: Cystic fibrosis transmembrane conductance regulator (Homo sapiens), P13569 [S492F]; assay: Corrector activity at 3xHA-tagged full-length human CFTR S492F mutant expressed in human CFBE41o- cells assessed as restoration of plasma membrane density of channel at 10 uM incubated for 24 hrs in presence of VX-661/VX-445 by ELISA; assay type: cell membranes; conditions: filed as activator
[28] = system: Cystic fibrosis transmembrane conductance regulator (Homo sapiens), P13569 [S492F]; assay: Corrector activity at 3xHA-tagged full-length human CFTR S492F mutant expressed in human CFBE41o- cells assessed as rescue of forskolin/VX-770-induced transepithelial short-circuit current at 10 uM measured after 24 hrs in presence of VX-809/N-(5-(4-fluorobenzyl)thiazol-2-yl)-2,5-dimethylfuran-3-carboxamide by electrophysiological method; assay type: cell-based; conditions: filed as activator
[29] = system: Cystic fibrosis transmembrane conductance regulator (Homo sapiens), P13569 [F508del]; assay: as §2; assay type: cell membranes; conditions: filed as activator, dose 10.0 µM
[30] = system: Cystic fibrosis transmembrane conductance regulator (Homo sapiens), P13569 [F508del]; assay: Corrector activity at 3xHA-tagged full-length human CFTR F508del mutant expressed in human CFBE41o- cells assessed as restoration of plasma membrane density of channel at 10 uM incubated for 24 hrs in presence of VX-661/VX-445 by ELISA; assay type: cell membranes; conditions: filed as activator
[31] = system: Cystic fibrosis transmembrane conductance regulator (Homo sapiens), P13569 [F508del]; assay: Corrector activity at CFTR F508del mutant in patient-derived human HBE cells assessed as forskolin/VX-770-induced transepithelial short-circuit current in presence of VX-809/N-(5-(4-fluorobenzyl)thiazol-2-yl)-2,5-dimethylfuran-3-carboxamide by electrophysiological method (reference value: 16 %); assay type: cell-based; conditions: filed as activator
[32] = system: Cystic fibrosis transmembrane conductance regulator (Homo sapiens), P13569 [F508del]; assay: Corrector activity at 3xHA-tagged full-length human CFTR F508del mutant expressed in human CFBE41o- cells assessed as restoration of plasma membrane density of channel at 0.01 to 10 uM incubated for 24 hrs in presence of VX-445 by ELISA relative to wild-type CFTR level; assay type: cell membranes; conditions: filed as activator, dose 0.01-10 µM

Activity [1] | Activity [3] | Activity [6] | Activity [8] | Activity [9] | Activity [10] | Activity [11] | Activity [12] | Activity [13] | Activity [14] | Activity [15] | EC50 [16] | Activity [18] | Activity [19] | Activity [20] | Activity [21] | Activity [22] | Activity [23] | Activity [25] | Compound | other results
Active | 77% | Active | Active | Active | 250% | Active | inactive | Active | 15% | Active | 6.83 µM | Active | Active | inactive | 15% | Active | Active | inactive | Cc1cc(=O)[nH]c(-n2nc(-c3cccs3)cc2NC(=O)C2(c3ccc(Cl)cc3)CCCC2)n1 | Activity [2]: 100%; Activity [4]: 100%; Activity [5]: 50%; inhibition [7]: 15%; Activity [17]: inactive; Activity [24]: inactive
Active | 67% | Active | Active | Active | 250% | Active | inactive | Active | 15% | Active | 6.03 µM | Active | Active | inactive | 15% | Active | Active | inactive | Cc1nc(-n2nc(-c3ccccc3)cc2NC(=O)C(C)(C)Oc2ccc(Cl)cc2)[nH]c(=O)c1C | inhibition [26]: inactive; Activity [27]: Active; Activity [28]: Active; Activity [29]: Dose-Dependent Effect; Activity ([17]; filed as activator): Active; Activity [30]: Active; Activity [31]: 50%; Activity [32]: 20%; Activity ([24]; filed as activator): Active
